Data taken from patent US20070054804A1, “Use of fungicides for disinfecting cereal seed” (BAYER CROPSCIENCE AKTIENGESELLSCHAFT, priority 2003, published 2007).

System: Fusarium nivale
Test: Fusarium nivale test (wheat)/seed treatment
Format: in vivo
Details: seed dressing of infected wheat seed, evaluated three weeks after sowing, 0% = control, 100% = no infection
Description: Fusarium nivale Test (Wheat)/Seed Treatment The active compounds or the active compound combination are/is applied using commercially available liquid seed dressings of the individual active compounds or the active compound combination. For seed dressing, the infected seed is shaken with the seed dressing in question in a closed plastic container for 3 minutes. For each test, in two seed trays in each case 100 wheat corns are sown at a depth of 3 cm in sand and covered with a layer of fine particulate clay. The seed trays are then placed in a greenhouse at a temperature of about 10° C. and a relative atmospheric humidity of 95% and exposed to light for 15 hours per day. Three weeks after sowing, the plants are evaluated for symptoms. The efficacy is expressed in %. 0% means an efficacy which corresponds to that of the control, whereas an efficacy of 100% means that no infection is observed.

OC(Cc1ccccc1Cl)(Cn1nc[nH]c1=S)C1(Cl)CC1 (centres unmarked) [prothioconazole, 2-[2-(1-chlorocyclopropyl)-3-(2-chlorophenyl)-2-hydroxypropyl]-2,4-dihydro[1,2,4]-triazole-3-thione]
Efficacy in % (5 g active compound per 100 kg of seed): 57%

CC(C)(C)C(O)(CCc1ccc(Cl)cc1)Cn1cncn1 (centres unmarked) [tebuconazole]
Efficacy in % (3 g active compound per 100 kg of seed): 11%
